Earlier results in patent publication US20040157796A1 (priority 2002, published 2004).

What was measured:
COX-1 = COX-1 (Homo sapiens, UniProt P23219); conditions: background statement
[1] = background statement

Chain of COX-1 (P23219 24-599): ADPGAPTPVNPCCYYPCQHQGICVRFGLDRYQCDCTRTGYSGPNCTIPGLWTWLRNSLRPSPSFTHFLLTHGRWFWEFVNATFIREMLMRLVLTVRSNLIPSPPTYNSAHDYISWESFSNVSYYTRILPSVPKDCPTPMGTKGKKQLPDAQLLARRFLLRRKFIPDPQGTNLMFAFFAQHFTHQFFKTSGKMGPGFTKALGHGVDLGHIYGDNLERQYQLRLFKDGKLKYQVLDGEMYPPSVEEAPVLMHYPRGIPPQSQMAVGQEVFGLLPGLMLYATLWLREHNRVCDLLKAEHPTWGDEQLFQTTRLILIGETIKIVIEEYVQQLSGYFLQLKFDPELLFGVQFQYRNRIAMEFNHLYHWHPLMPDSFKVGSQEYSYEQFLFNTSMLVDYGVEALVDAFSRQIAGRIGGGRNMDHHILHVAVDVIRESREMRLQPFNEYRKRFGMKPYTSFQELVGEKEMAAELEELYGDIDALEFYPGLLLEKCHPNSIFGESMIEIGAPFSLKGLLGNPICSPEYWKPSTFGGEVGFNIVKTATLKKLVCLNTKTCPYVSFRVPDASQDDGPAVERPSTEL

SMILES | in vitro inhibitory activity against COX-1 (COX-1) | solubility in water [1]
CCC(=O)NS(=O)(=O)c1ccc(-c2c(-c3ccccc3)noc2C)cc1 [Parecoxib, N-[[4-(5-methyl-3-phenylisoxazol-4-yl)phenyl]sulfonyl]propanamide] | weak in vitro inhibitory activity | much more soluble
Cc1onc(-c2ccccc2)c1-c1ccc(S(N)(=O)=O)cc1 [valdecoxib] | weak inhibitor | extremely low solubility
